One series deals with beta-adrenergic. The following applies: cited from earlier work.
The conditions of series [1]: preclinical and clinical studies, cited from earlier work.
Series [2] concerns reduction in bladder capacity following continuous infusion of dilute acetic acid. Kind of series: Dilute acetic acid irritative model, bladder capacity by cystometry. Conditions: isobologram, drug alone; for common maximal effect, return to % of saline control bladder capacity: group mean data; for common maximal effect (target value), return to % of saline control bladder capacity: individual responses. The format is in vivo, rat. As for the experimental part: Urethane anesthetized (1.2 g/kg) normal female rats were utilized in this study.
Animals were dosed by volume of injection=body weight in kg.
Animal Preparation: Female rats (250-300 g body weight) were anesthetized with urethane (1.2 g/kg) and a saline-filled catheter (PE-50) was inserted into the jugular vein for intravenous drug administration. […] The abdominal cavity was moistened with saline and closed by covering with a thin plastic sheet in order to maintain access to the bladder for emptying purposes. Fine silver or stainless steel wire electrodes were inserted into the external urethral sphincter (EUS) percutaneously for electromyography (EMG).
Following 30 minutes of AA infusion, 3 vehicle injections were made at 20 minute intervals to determine vehicle effects, if any.
P<0.050 was considered significant.

Here are results for four molecules from US20060276542A1, “Methods for treating functional bowel disorders using alpha2 subunit calcium channel modulators with smooth muscle modulators” (priority 2003, published 2006).

Structures are written as SMILES.

Regarding `CC(C)NC[C@H](O)COc1cccc2ccccc12` [L-enantiomer of propranolol, propranolol], the “potency of L-enantiomer relative to D-enantiomer” value in the series with beta-adrenergic is recorded as 100 times.
Consider `CC(OC(=O)NCC1(CC(=O)O)CCCCC1)OC(=O)C(C)C` (stereo not shown) [XP13512], for which, in series [1] (oral), the “blood levels of gabapentin across a broad range of oral doses” value is listed as “dose proportional blood levels of gabapentin”. The “absorption from the large intestine” value in series [1] is given as “absorbed efficiently from the large intestine”.
On to `NCC1(CC(=O)O)CCCCC1` [gabapentin, 1-(aminomethyl)cyclohexaneacetic acid], for which, in series [2], the “common maximal effect, return to % of saline control bladder capacity” value is 43 % of saline control and the “common maximal effect (target value), return to % of saline control bladder capacity” value is 31 % of saline control.
For `CCN(CC)CC#CCOC(=O)C(O)(c1ccccc1)C1CCCCC1` (stereo not shown) [oxybutynin, 4-diethylaminio-2-butynyl phenylcyclohexyglycolate], in series [2], the “common maximal effect, return to % of saline control bladder capacity” value is listed as 43 % of saline control and the “common maximal effect (target value), return to % of saline control bladder capacity” value is 31 % of saline control.
